Test results taken from ChEMBL document CHEMBL1201862, “PubChem BioAssay data set” (2004).
Calls of active or inactive are those of the source. For most assays here, no stated cut-off is given here; in the data, actives have a measured EC50 and inactives only a lower limit.

Experiments:
[1] = Luminescence Cell-Based Dose Confirmation to Identify Activators of 5'UTR Stem-Loop Driven Alpha-Synuclein mRNA Translation in H4 Neuroglioblastoma Cells. [Related pubchem assays: 1829 (Project Summary), 1814 (Primary HTS)]; format: functional
[2] = Luminescence Cell-Based Dose Response HTS to Identify Activators of Luciferase Translation or Activity in H4 […] Cells. [Related pubchem assays: 1829 (Project Summary), 1814 (Primary HTS)]; format: functional
[3] = Luminescence Cell-Based Dose Response to Identify Activators of Luciferase Translation or Activity in H4-C Neuroglioblastoma Cells. [Related pubchem assays: 1829 (Project Summary), 1814 (Primary HTS)]; format: functional
[4] = Luminescence Cell-Based Dose Response to Identify Activators of 5'UTR Stem-Loop Driven Prion Protein mRNA Translation in H4-C Neuroglioblastoma Cells. [Related pubchem assays: 1829 (Project Summary), 1814 (Primary HTS)]; format: functional
[5] = Luminescence-based dose response cell-based high throughput screening assay for cytotoxic compounds using the IEC-6 intestinal epithelial cell line. [Related pubchem assays: 1858 (Summary AID.), 1825 (Counterscreen.), 1907 (Confirmation screen.)]; format: functional
[6] = cytotoxicity toward NIH3T3 fibroblasts, dose response, counter-screen, cell-based, ATP luminescence, mouse fibroblasts (AID 2010); format: functional;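 further: cells exposed to compound for about 90 hours before reading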
[7] = cytotoxicity in HEK-293T cells, dose response, cytotoxicity control for TCR NF-kB inhibitor project, luminescence, T-cell screen hits (AID 489026); format: functional, cell-based;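 further: cells exposed to compound about 14 hours before the viability readout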
BJ [8] = assay: cells; format: functional, cell-based; details: Homo sapiens
[9] = cytotoxicity toward DRD oncogenic fibroblasts, dose response, cell-based, non-viral oncogenic, luminescence (AID 1934); format: functional; details: Homo sapiens
[10] = HEK293 cell cytotoxicity, dose response, cytotoxicity control, dry powder samples (AID 720567); format: functional, cell-based
BJ [11] = assay: cytotoxicity toward BJ-TERT fibroblasts, dose response, cell-based, RAS-independent, luminescence (AID 1933); format: functional; details: Homo sapiens
BJ [12] = assay: cytotoxicity toward BJ-TERT-LT-ST fibroblasts, dose response, cell-based, RAS-independent, luminescence (AID 1935); format: functional; details: Homo sapiens;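 further: BJ fibroblasts immortalized with TERT plus LT and ST oncogenes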
[13] = inhibitors of intracellular T. cruzi replication, confirmation, NIH3T3 host cells, beta-gal luminescence (AID 2044); format: functional, cell-based;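 further: intracellular parasites grown in NIH/3T3 mouse fibroblasts as host cells; luminescent beta-galactosidase reporter signal from transgenic T. cruzi replicating inside host cells; inhibitors lower the luminescence signal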
[14] = yeast RAM network inhibitors, dose response, S. cerevisiae (AID 1307); format: functional
[15] = biological target: 5-hydroxytryptamine receptor 1A (Homo sapiens, UniProt P08908); format: functional
Chain of 5-hydroxytryptamine receptor 1A (P08908 whole entry): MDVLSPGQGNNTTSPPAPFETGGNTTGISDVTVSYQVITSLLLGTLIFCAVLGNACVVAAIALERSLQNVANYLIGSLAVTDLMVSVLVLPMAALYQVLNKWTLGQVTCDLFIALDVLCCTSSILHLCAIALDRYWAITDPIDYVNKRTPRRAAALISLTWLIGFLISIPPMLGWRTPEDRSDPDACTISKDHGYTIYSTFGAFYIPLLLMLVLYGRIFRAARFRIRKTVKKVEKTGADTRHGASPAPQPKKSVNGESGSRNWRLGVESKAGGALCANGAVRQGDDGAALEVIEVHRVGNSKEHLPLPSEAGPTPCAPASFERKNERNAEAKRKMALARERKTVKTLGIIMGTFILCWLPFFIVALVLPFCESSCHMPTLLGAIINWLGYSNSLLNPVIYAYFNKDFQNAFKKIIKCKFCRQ

With O=c1sc(N2CCN(c3ccccc3F)CC2)nc2ccsc12 the EC50 [1] was 237 nM (active), the EC50 [2] was < 100 nM (inconclusive) and the EC50 [3] was 349 nM (active). The EC50 [4] was 309 nM (active).
With CCn1c2ccccc2c2cc(NC(=O)c3cc(OC)c(OC)c(OC)c3)ccc21 the IC50 [5] was 534 nM (active), the EC50 [6] was 121 nM (active) and the IC50 [7] was > 80000 nM (inactive). The EC50 (BJ [8]) was 745 nM (inconclusive), the EC50 [9] was 284 nM (inconclusive) and the AC50 [10] was 25600 nM (active). The EC50 (BJ [11]) was 184 nM (active), the EC50 (BJ [12]) was 165 nM (inconclusive) and the EC50 [13] was 1000 nM (active).
For CN1/C(=C\C=C2/C(=O)Oc3ccccc3C2=O)C(C)(C)c2ccccc21, the IC50 [14] was 178000 nM (active).
In the case of CN1CCN(/C(=N\O)c2nonc2N)CC1, the EC50 [15] is reported as > 50000 nM (not active).
